Reference: PubChem BioAssay AID1259407 (Chemical Carcinogenesis Research Information System (CCRIS), 2018)
Calls of active or inactive are those of the source. How the calls were made is not given here.

Tested on: CCRIS mutagenicity, Ames/micronucleus/aberration tests
Assay: CCRIS mutagenicity studies
[1] = Test System: AMES SALMONELLA TYPHIMURIUM, Strain/Indicator: TA100, Metabolic Activation: NONE, Method: PREINCUBATION
[2] = Test System: AMES SALMONELLA TYPHIMURIUM, Strain/Indicator: TA97, Metabolic Activation: NONE, Method: PREINCUBATION
[3] = Test System: AMES SALMONELLA TYPHIMURIUM, Strain/Indicator: TA98, Metabolic Activation: HAMSTER, LIVER, S-9, AROCLOR 1254 (10%), Method: PREINCUBATION
[4] = Test System: AMES SALMONELLA TYPHIMURIUM, Strain/Indicator: TA98, Metabolic Activation: NONE, Method: PREINCUBATION
[5] = Test System: AMES SALMONELLA TYPHIMURIUM, Strain/Indicator: TA98, Metabolic Activation: RAT, LIVER, S-9, AROCLOR 1254 (10%), Method: PREINCUBATION
[6] = Test System: AMES SALMONELLA TYPHIMURIUM, Strain/Indicator: TA100, Metabolic Activation: RAT, LIVER, S-9, AROCLOR 1254 (10%), Method: PREINCUBATION
[7] = Test System: AMES SALMONELLA TYPHIMURIUM, Strain/Indicator: TA1535, Metabolic Activation: HAMSTER, LIVER, S-9, AROCLOR 1254 (10%), Method: PREINCUBATION
[8] = Test System: AMES SALMONELLA TYPHIMURIUM, Strain/Indicator: TA1535, Metabolic Activation: NONE, Method: PREINCUBATION
[9] = Test System: AMES SALMONELLA TYPHIMURIUM, Strain/Indicator: TA1535, Metabolic Activation: RAT, LIVER, S-9, AROCLOR 1254 (10%), Method: PREINCUBATION
[10] = Test System: AMES SALMONELLA TYPHIMURIUM, Strain/Indicator: TA1538, Metabolic Activation: RAT, LIVER, S-9, AROCLOR 1254, Method: STANDARD PLATE
[11] = Test System: AMES SALMONELLA TYPHIMURIUM, Strain/Indicator: TA98, Metabolic Activation: RAT, LIVER, S-9, AROCLOR 1254, Method: STANDARD PLATE
[12] = Test System: AMES SALMONELLA TYPHIMURIUM, Strain/Indicator: TA100, Metabolic Activation: RAT, LIVER, S-9, AROCLOR 1254, Method: STANDARD PLATE
[13] = Test System: AMES SALMONELLA TYPHIMURIUM, Strain/Indicator: TA98, Metabolic Activation: NONE, Method: STANDARD PLATE

CC1(c2ccccc2)CO1 (centres undefined)
mutagenic call [1]: active; positive

C=C1C/C(=C/C)C(=O)O[C@@H]2CCN3CC=C(COC(=O)[C@]1(C)O)[C@H]23
mutagenic call (Test System: AMES SALMONELLA TYPHIMURIUM, Strain/Indicator: TA97, Metabolic Activation: HAMSTER, LIVER, S-9, AROCLOR 1254 (5, 10 OR 30%), Method: PREINCUBATION): inactive; negative | mutagenic call [2]: inactive; negative | mutagenic call (Test System: AMES SALMONELLA TYPHIMURIUM, Strain/Indicator: TA97, Metabolic Activation: RAT, LIVER, S-9, AROCLOR 1254 (5, 10 OR 30%), Method: PREINCUBATION): inactive; negative | mutagenic call [3]: inactive; negative | mutagenic call [4]: inactive; negative | mutagenic call [5]: inactive; negative | mutagenic call (Test System: AMES SALMONELLA TYPHIMURIUM, Strain/Indicator: TA100, Metabolic Activation: HAMSTER, LIVER, S-9, AROCLOR 1254 (5%), Method: PREINCUBATION): inactive; negative | mutagenic call (Test System: AMES SALMONELLA TYPHIMURIUM, Strain/Indicator: TA100, Metabolic Activation: HAMSTER, LIVER, S-9, AROCLOR 1254 (10 OR 30%), Method: PREINCUBATION): active; positive | mutagenic call (Test System: AMES SALMONELLA TYPHIMURIUM, Strain/Indicator: TA100, Metabolic Activation: HAMSTER, LIVER, S-9, PCB, Method: PREINCUBATION): inactive; negative | mutagenic call [1]: inactive; negative | mutagenic call (Test System: AMES SALMONELLA TYPHIMURIUM, Strain/Indicator: TA100, Metabolic Activation: RAT, LIVER, S-9, AROCLOR 1254 (5 OR 30%), Method: PREINCUBATION): inactive; negative | mutagenic call [6]: inactive; negative | mutagenic call (Test System: AMES SALMONELLA TYPHIMURIUM, Strain/Indicator: TA100, Metabolic Activation: RAT, LIVER, S-9, PCB, Method: PREINCUBATION): inactive; negative | mutagenic call (Test System: AMES SALMONELLA TYPHIMURIUM, Strain/Indicator: TA100, Metabolic Activation: RAT, LIVER, S-9, SODIUM PHENOBARBITAL AND BETA-NAPHTHOFLAVONE, Method: PREINCUBATION): inactive; negative | mutagenic call [7]: inactive; negative | mutagenic call [8]: inactive; negative | mutagenic call [9]: inactive; negative | mutagenic call (Test System: UDS HAMSTER HEPATOCYTES, Strain/Indicator: THY INCORP, Metabolic Activation: NONE, Method: AUTORADIOGRAPHY): active; positive | mutagenic call (Test System: UDS MOUSE HEPATOCYTES, Strain/Indicator: THY INCORP, Metabolic Activation: NONE, Method: AUTORADIOGRAPHY): active; positive | mutagenic call (Test System: UDS RAT HEPATOCYTES, Strain/Indicator: THY INCORP, Metabolic Activation: NONE, Method: AUTORADIOGRAPHY): active; positive

CNc1ccc(O)cc1
mutagenic call (Test System: AMES SALMONELLA TYPHIMURIUM, Strain/Indicator: TA97, Metabolic Activation: HAMSTER, LIVER, AROCLOR 1254 (10%), Method: PREINCUBATION): inactive; negative | mutagenic call [2]: inactive; negative | mutagenic call (Test System: AMES SALMONELLA TYPHIMURIUM, Strain/Indicator: TA97, Metabolic Activation: RAT, LIVER, S-9, AROCLOR 1254 (10%), Method: PREINCUBATION): active; positive | mutagenic call [3]: inactive; negative | mutagenic call [4]: inactive; negative | mutagenic call [5]: inactive; negative | mutagenic call [1]: inactive; negative | mutagenic call [6]: inactive; negative | mutagenic call [7]: inactive; negative | mutagenic call [8]: inactive; negative | mutagenic call [9]: inactive; negative | mutagenic call (Test System: AMES SALMONELLA TYPHIMURIUM, Strain/Indicator: TA1537, Metabolic Activation: HAMSTER, LIVER, S-9, AROCLOR 1254 (10%), Method: PREINCUBATION): active; positive | mutagenic call (Test System: AMES SALMONELLA TYPHIMURIUM, Strain/Indicator: TA1537, Metabolic Activation: NONE, Method: PREINCUBATION): inactive; negative | mutagenic call (Test System: AMES SALMONELLA TYPHIMURIUM, Strain/Indicator: TA1537, Metabolic Activation: RAT, LIVER, S-9, AROCLOR 1254 (10%), Method: PREINCUBATION): active; positive

Cc1cc(=O)oc2c3c4c(cc12)CCCN4CCC3
mutagenic call (Test System: AMES SALMONELLA TYPHIMURIUM, Strain/Indicator: TA1538, Metabolic Activation: NONE, Method: STANDARD PLATE): inactive; negative | mutagenic call [10]: active; positive

Cc1cc(-c2ccccc2C)ccc1N
mutagenic call [11]: active; positive | mutagenic call [12]: active; positive | mutagenic call [10]: active; positive | mutagenic call (Test System: UDS RODENT HEPATOCYTES, Strain/Indicator: THY INCORP (NON-S-PHASE), Method: AUTORADIOGRAPHY): active; positive

OCc1cc2ccc3cccc4ccc(c1)c2c34
mutagenic call (Test System: AMES SALMONELLA TYPHIMURIUM, Strain/Indicator: TA98, Metabolic Activation: HUMAN, LIVER, CYTOSOL, PAPS, Method: PREINCUBATION): active; positive

CC(C)=C[C@H]1[C@@H](C(=O)OCc2coc(Cc3ccccc3)c2)C1(C)C
mutagenic call [13]: inactive; negative | mutagenic call [11]: inactive; negative | mutagenic call [12]: inactive; negative | mutagenic call (Test System: CHINESE HAMSTER V-79, Strain/Indicator: V-79/6-THIOGUANINE, Metabolic Activation: NONE, Method: STANDARD PLATE): inactive; negative | mutagenic call (Test System: CHINESE HAMSTER V-79, Strain/Indicator: V-79/6-THIOGUANINE, Metabolic Activation: RAT HEPATOCYTES, Method: STANDARD PLATE): inactive; negative | mutagenic call (Test System: CHINESE HAMSTER V-79, Strain/Indicator: V-79/OUABAIN, Metabolic Activation: NONE, Method: STANDARD PLATE): inactive; negative | mutagenic call (Test System: CHINESE HAMSTER V-79, Strain/Indicator: V-79/OUABAIN, Metabolic Activation: RAT HEPATOCYTES, Method: STANDARD PLATE): inactive; negative

CN=NC(C)(C)OO
mutagenic call (Test System: AMES SALMONELLA TYPHIMURIUM, Strain/Indicator: TA100, Metabolic Activation: NONE): active; positive | mutagenic call (Test System: AMES SALMONELLA TYPHIMURIUM, Strain/Indicator: TA102, Metabolic Activation: NONE): active; positive | mutagenic call (Test System: AMES SALMONELLA TYPHIMURIUM, Strain/Indicator: TA1535, Metabolic Activation: NONE): active; positive | mutagenic call (Test System: E. COLI, Strain/Indicator: WP2 (HCR-), Metabolic Activation: NONE): active; positive

O=[N+]([O-])c1cc2[nH]c3ccc4c(O)cccc4c3c2c2ccccc12
mutagenic call [13]: active; positive | mutagenic call (Test System: AMES SALMONELLA TYPHIMURIUM, Strain/Indicator: TA98, Metabolic Activation: RAT, LIVER, S-9, 3-METHYLCHOLANTHRENE, Method: STANDARD PLATE): active; positive | mutagenic call (Test System: AMES SALMONELLA TYPHIMURIUM, Strain/Indicator: TA100, Metabolic Activation: NONE, Method: STANDARD PLATE): active; positive | mutagenic call (Test System: AMES SALMONELLA TYPHIMURIUM, Strain/Indicator: TA100, Metabolic Activation: RAT, LIVER, S-9, 3-METHYLCHOLANTHRENE, Method: STANDARD PLATE): active; positive

C1=CC2CCCCC2c2ccccc21 (centres undefined)
mutagenic call (Test System: AMES SALMONELLA TYPHIMURIUM, Strain/Indicator: TA98, Metabolic Activation: RAT, LIVER, S-9, SODIUM PHENOBARBITAL AND BETA-NAPHTHOFLAVONE, Method: STANDARD PLATE): active; positive | mutagenic call (Test System: AMES SALMONELLA TYPHIMURIUM, Strain/Indicator: TA100, Metabolic Activation: RAT, LIVER, S-9, SODIUM PHEOBARBITAL AND BETA-NAPHTHOFLAVONE, Method: STANDARD PLATE): active; positive
